Structures can show the parent of a compound that is named as a salt.

By CC50 is commonly meant the concentration at which the toxic effect on the cells reaches its halfway point. Lower therefore signals harm at low concentration.

The first data set can be described thus: in vitro. The following applies: rat, gh3-tre-luc cells, AC50 (uM) modified / 1000.
In the case of `COc1ccccc1OC(=O)Oc1ccccc1OC` [Guaiacol carbonate], the CC50 at 24 h was > 50 µM.
As for `CCN(CC)CCOc1ccccc1OC` [Guaiactamine], the CC50 at 24 h is > 50 µM.
The same measure, in the same setting: as for `Cc1ccc(C(C)C)cc2c(C)ccc1-2` [Guaiazulene], the figure is > 50 µM; as for `N=C(N)N/N=C/c1c(Cl)cccc1Cl` [Guanabenz], 20.8 µM; as for `N=C(N)NCC1COC2(CCCCC2)O1` (stereo not drawn) [Guanadrel sulfate], > 20 µM.
Take `Nc1n[nH]c(N)n1` [Guanazole]: the CC50 at 24 h was > 90 µM.
Same read-out and setting: as for `N=C(N)NC(=O)Cc1c(Cl)cccc1Cl` [Guanfacine hydrochloride], the figure is 31.7 µM; as for `N=C(N)N` [Guanidine carbonate], > 50 µM.
The same measure, in the same setting: as for `N=C(N)NCC1COc2ccccc2O1` (stereo not drawn) [Guanoxan], the figure is > 50 µM.
For `C/C=C1/C(=O)C[C@H]2[C@@H]3CCC4=CC(=O)CC[C@]4(C)[C@H]3CC[C@]12C` [Guggulsterone E], the cytotoxic concentration (CC50) at 24 h is > 90 µM.
Regarding `C/C=C1\C(=O)C[C@H]2[C@@H]3CCC4=CC(=O)CC[C@]4(C)[C@H]3CC[C@]12C` [Guggulsterone Z], the 50% cytotoxic concentration (CC50) at 24 h is > 50 µM.
For the molecule `N=C(N)NCCCCCCC(=O)NC(O)C(=O)NCCCCNCCCN` (stereo not drawn) [Gusperimus trihydrochloride], the CC50 at 24 h is > 50 µM.
For the molecule `Nc1ccc(NCCO)c([N+](=O)[O-])c1` [HC Red 3], it took 52.7 µM to reach half-maximal cytotoxicity (CC50 at 24 h).
The same measure, in the same setting: as for `O=[N+]([O-])c1ccc(NCCO)c(OCCO)c1` [HC Yellow 4], the figure is 58.6 µM; as for `OC12N=C(c3ccccc3)SC1Cc1cc(Cl)ccc12` (stereo not drawn) [HMR1426], 56.9 µM; as for `O=C(O)c1ccc(S(=O)(=O)N(Cl)Cl)cc1` [Halazone], > 90 µM.
As for `CC1(C)O[C@@H]2C[C@H]3[C@@H]4CCC5=CC(=O)CC[C@]5(C)[C@@]4(F)[C@@H](O)C[C@]3(C)[C@]2(C(=O)CCl)O1` [Halcinonide], the CC50 at 24 h was > 20 µM.
`CCN(CC)CCOc1ccc(-c2nc3cc(Cl)ccc3s2)cc1` [Halethazole hydrochloride] had a CC50 at 24 h of 8.14 µM.
Still for that read-out and setting: in the case of `CCC(=O)O[C@]1(C(=O)CCl)[C@@H](C)C[C@H]2[C@@H]3C[C@H](F)C4=CC(=O)C=C[C@]4(C)[C@@]3(F)[C@@H](O)C[C@@]21C` [Halobetasol propionate] it was > 50 µM; in that of `CCCCN(CCCC)CCC(O)c1cc2c(Cl)cc(Cl)cc2c2cc(C(F)(F)F)ccc12` (stereo not drawn) [Halofantrine hydrochloride], > 20 µM.
The molecule `CC(C)(C)N(NC(=O)c1ccc(Cl)cc1)C(=O)c1ccccc1` [Halofenozide] showed a CC50 at 24 h of 4.99 µM.
Regarding `C[C@@H]1C[C@H]2[C@@H]3C[C@H](F)C4=CC(=O)C(Cl)=C[C@]4(C)[C@@]3(F)[C@@H](O)C[C@]2(C)[C@@]1(O)C(=O)CO` [Halometasone hydrate], the CC50 at 24 h is > 50 µM.
The same measure, in the same setting: as for `Clc1cc(Cl)c(OCC#CI)cc1Cl` [Haloprogin], the figure is 11.9 µM.
Turning to `FC(F)(F)C(Cl)Br` (stereo not drawn) [Halothane], the CC50 at 24 h was > 90 µM.
Same read-out and setting: as for `COC(=O)C(C)Oc1ccc(Oc2ncc(C(F)(F)F)cc2Cl)cc1` (stereo not drawn) [Haloxyfop-methyl], the figure is > 90 µM; as for `CC(Oc1ccc(Oc2ncc(C(F)(F)F)cc2Cl)cc1)C(=O)O` (stereo not drawn) [Haloxyfop], > 90 µM.
In turn, `Oc1cc2c(cc1O)[C@@H]1c3ccc(O)c(O)c3OC[C@]1(O)C2` [Hematoxylin] gave a CC50 at 24 h of 69.9 µM.
On the same count and under the same terms, as for `CCCCCCCCCCCCCCCCC` [Heptadecane], the figure is > 90 µM; as for `C1CCCNCCC1` [Heptamethyleneimine], > 90 µM; as for `CC(N)CCCC(C)(C)O` (stereo not drawn) [Heptaminol hydrochloride], > 50 µM.
On the same count and under the same terms, as for `CCCCCCC=O` [Heptanal], the figure is > 90 µM; as for `CCCCCCC` [Heptane], > 100 µM.
Still for that read-out and setting: in the case of `O=C(O)CCCCCC(=O)O` [Heptanedioic acid] it was > 90 µM.
For the molecule `CCCCCCC(=O)O` [Heptanoic acid], the CC50 at 24 h is > 90 µM.
On the same count and under the same terms, as for `CCCCCCC(=O)c1ccccc1` [Heptanophenone], the figure is > 90 µM.
The same measure, in the same setting: as for `CCCCCCCOC(C)=O` [Heptyl acetate], the figure is > 90 µM.
Same read-out and setting: in the case of `CCCCCCCOC(=O)CCC` [Heptyl butanoate] it was > 90 µM; in that of `CCCCCCCN` [Heptylamine], > 90 µM; in that of `COc1ccc([C@@H]2CC(=O)c3c(O)cc(O[C@@H]4O[C@H](CO[C@@H]5O[C@@H](C)[C@H](O)[C@@H](O)[C@H]5O)[C@@H](O)[C@H](O)[C@H]4O)cc3O2)cc1O` [Hesperidin], > 20 µM.
For the molecule `CC1(C)S[C@@H]2[C@H](N3C(=O)[C@@H](c4ccccc4)NC3(C)C)C(=O)N2[C@H]1C(=O)O` [Hetacillin potassium], the CC50 at 24 h was > 50 µM.
Same read-out and setting: as for `CC(O)C#CC(C)O` (stereo not drawn) [Hex-3-yne-2,5-diol], the figure is 50.2 µM; as for `COCN(COC)c1nc(N(COC)COC)nc(N(COC)COC)n1` [Hexa(methoxymethyl)melamine], > 90 µM; as for `Brc1c(Br)c(Br)c(Br)c(Br)c1Br` [Hexabromobenzene], > 5 µM.
Still for that read-out and setting: in the case of `ClC(Cl)=C(Cl)C(Cl)=C(Cl)Cl` [Hexachloro-1,3-butadiene] it was > 90 µM.
As to `O=C(C(Cl)(Cl)Cl)C(Cl)(Cl)Cl` [Hexachloroacetone], the CC50 at 24 h was > 90 µM.
On the same count and under the same terms, as for `Clc1c(Cl)c(Cl)c(Cl)c(Cl)c1Cl` [Hexachlorobenzene], the figure is > 5 µM; as for `CCCCC(O)(Cn1cncn1)c1ccc(Cl)cc1Cl` (stereo not drawn) [Hexaconazole], 54.6 µM; as for `CCCCCCCCCCCCCCCC` [Hexadecane], > 90 µM.
The same measure, in the same setting: as for `CCCCCCCCCCCCCCCC(=O)OC(C)C` [Hexadecanoic acid, 1-methylethyl ester], the figure is > 50 µM; as for `CCCCCCCCCCCCCCCC(=O)O` [Hexadecanoic acid], > 90 µM; as for `CCCCCCCCCCCCCCCC[N+](C)(C)C` [Hexadecyl trimethyl ammonium chloride], 12.8 µM.
The same measure, in the same setting: in the case of `CCCCCCCCCCCCCCCCN` [Hexadecylamine] it was > 50 µM; in that of `O=C(NC(=O)c1c(F)cccc1F)Nc1cc(Cl)c(OC(F)(F)C(F)F)c(Cl)c1` [Hexaflumuron], > 90 µM.
Turning to `C[N+](C)(CCCCCC[N+](C)(C)C1c2ccccc2-c2ccccc21)C1c2ccccc2-c2ccccc21` [Hexafluorenium dibromide], the CC50 at 24 h is > 50 µM.
Regarding `O=C1OC(=O)C2CCCCC12` (stereo not drawn) [Hexahydrophthalic anhydride], the CC50 at 24 h was > 90 µM.
On the same count and under the same terms, as for `C[Si]1(C)O[Si](C)(C)O[Si](C)(C)O1` [Hexamethylcyclotrisiloxane], the figure is > 90 µM.
Regarding `C[Si](C)(C)O[Si](C)(C)C` [Hexamethyldisiloxane], the CC50 at 24 h was > 90 µM.
On the same count and under the same terms, in the case of `C1CCCNCC1` [Hexamethyleneimine] it was > 100 µM; in that of `CCCCCC=O` [Hexanal], > 100 µM; in that of `CCCCCC(N)=O` [Hexanamide], > 90 µM.
In the case of `O=C(OCCCCCCOC(=O)c1ccccc1)c1ccccc1` [Hexane-1,6-diyl dibenzoate], the CC50 at 24 h is > 90 µM.
With `NNC(=O)CCCCC(=O)NN` [Hexanedihydrazide], the cytotoxic concentration (CC50) at 24 h is > 90 µM.
Same read-out and setting: as for `N#CCCCCC#N` [Hexanedinitrile], the figure is > 90 µM.
Still for that read-out and setting: in the case of `CC(C)CCCCCCOC(=O)CCCCC(=O)OCCCCCCC(C)C` [Hexanedioic acid, diisononyl ester] it was > 90 µM.
Turning to `O=C(O)CCCCC(=O)O` [Hexanedioic acid], the CC50 at 24 h is > 90 µM.
Still for that read-out and setting: as for `CCCCCC(=O)O` [Hexanoic acid], the figure is > 90 µM.
On the same count and under the same terms, as for `CN(C)c1nc(=O)n(C2CCCCC2)c(=O)n1C` [Hexazinone], the figure is > 100 µM; as for `CCCCC(CC)CN1CN(CC(CC)CCCC)CC(C)(N)C1` (stereo not drawn) [Hexetidine], > 20 µM.
Same read-out and setting: as for `CN1C(=O)NC(=O)C(C)(C2=CCCCC2)C1=O` (stereo not drawn) [Hexobarbital], the figure is > 50 µM; as for `C[N+]1(C)CCN(CC(O)(c2ccccc2)C2CCCCC2)CC1` (stereo not drawn) [Hexocyclium], > 50 µM.
Take `Oc1ccc(C(O)CNCCCCCCNCC(O)c2ccc(O)c(O)c2)cc1O` (stereo not drawn) [Hexoprenaline sulfate]: half-maximal cytotoxicity (CC50 at 24 h) was put at 20.9 µM.
As for `CCCCCCOC(=O)C(C)CC` (stereo not drawn) [Hexyl 2-methylbutanoate], the CC50 at 24 h was > 90 µM.
Turning to `CCCCCCOC(C)=O` [Hexyl acetate], the CC50 at 24 h is > 90 µM.
The same measure, in the same setting: as for `C=CC(=O)OCCCCCC` [Hexyl acrylate], the figure is > 90 µM.

Still in this data set, the particulars now being: rat, gh3-tre-luc cells, AC50 (uM) modified / 1000, Tox21_110001=Tox21_111889; viability, 1 nM T3 present, 24 h.
As for `Cc1c(Cl)c(=O)oc2cc(OP(=O)(OCCCl)OCCCl)ccc12` [Haloxon], the CC50 at 24 h was > 50 µM.

The same data set, now with this note: rat, gh3-tre-luc cells, AC50 (uM) modified / 1000, Tox21_110001=Tox21_200526; viability, 1 nM T3 present, 24 h.
In the case of `CCCCCCC#N` [Heptanenitrile], the CC50 at 24 h is > 90 µM.

The same data set, now with this note: rat, gh3-tre-luc cells, AC50 (uM) modified / 1000, Tox21_110001=Tox21_200724; viability, 1 nM T3 present, 24 h.
As for `ClC(Cl)(Cl)C(Cl)(Cl)Cl` [Hexachloroethane], the CC50 at 24 h was > 90 µM.

Staying with this data set, now noted: rat, gh3-tre-luc cells, AC50 (uM) modified / 1000, Tox21_110001=Tox21_201837; viability, 1 nM T3 present, 24 h.
As for `CN(C)P(=O)(N(C)C)N(C)C` [Hexamethylphosphoramide], the CC50 at 24 h is > 90 µM.

The data set is the same for the next values; noted with them: rat, gh3-tre-luc cells, AC50 (uM) modified / 1000, Tox21_110001=Tox21_201911; viability, 1 nM T3 present, 24 h.
Molecule `ClC1=C(Cl)C2(Cl)C3C(Cl)C=CC3C1(Cl)C2(Cl)Cl` (stereo not drawn) [Heptachlor] had a CC50 at 24 h of 37.8 µM. This counts as double-digit micromolar.

Staying with this data set, now noted: rat, gh3-tre-luc cells, AC50 (uM) modified / 1000, Tox21_110001=Tox21_300534; viability, 1 nM T3 present, 24 h.
For `ClC1=C(Cl)C2(Cl)C3C(Cl)C=CC3C1(Cl)C2(Cl)Cl` (stereo not drawn) [Heptachlor], the CC50 at 24 h turned out to be 42.6 µM.

Staying with this data set, now noted: rat, gh3-tre-luc cells, AC50 (uM) modified / 1000, Tox21_110001=Tox21_300621; viability, 1 nM T3 present, 24 h.
In the case of `ClC1=C(Cl)[C@]2(Cl)[C@@H]3[C@@H](Cl)[C@H]4O[C@H]4[C@@H]3[C@@]1(Cl)C2(Cl)Cl` [Heptachlor epoxide], the CC50 at 24 h is 48.8 µM.

For the origin of these results see PMC6792352, “Limited Chemical Structural Diversity Found to Modulate Thyroid Hormone Receptor in the Tox21 Chemical Library” (Environmental Health Perspectives, 2019).
